According to US7220784B2, “Substituted stilbenes and their reactions” (priority 2000, dated 2007):
“And” between values parts separate entries of the source, which are not always exact repeats. Equal entries are not always repeated. Where two headings read alike, the source gives them in different places. Each block holds one compound with its values, some of them ahead of it.

Experiments:
tubulin = system: T1, tubulin; assay: Inhibition of tubulin assembly; type: biochemical; settings: concentration required to reduce assembly of tubulin by 50%
T1 construct: other: concentration required to reduce assembly of tubulin by 50%
Protocol: (§1) The following assays (1–5) were carried out as described in our paper (Woods, et al, British Journal of Cancer, 71, 705–711 (1995)). In addition to the cell lines described in this paper, other established human cell lines (K562, HUVEC, H460, BE, H529, and HT29) were used in the cytotoxicity/growth inhibition assay. • (1) Inhibition of tubulin assembly. The figure quoted is the concentration required to reduce assembly of tubulin by 50%. Tubulin assembly is monitored by light scatter/absorption at 350 nm.

[1] = system: K562 human myelogeneous leukaemia cell line; assay: Cytotoxicity/growth inhibition assay (MTT), K562; type: cell-based; settings: Homo sapiens, K562; MTT; read-out: K562 IC50
How it was run: (§2)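 Growth inhibition of P388 murine and K562 human leukaemia cells measured by MTT assay.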

[2] = system: P388 murine leukaemia cell line; assay: Cytotoxicity/growth inhibition assay (MTT), P388; type: cell-based
How it was run: as §2

[3] = system: colchicine binding site on tubulin; assay: Competition for the colchicine binding site on tubulin
A2780 = assay: Cytotoxicity/growth inhibition assay (MTT), A2780; type: cell-based
How it was run: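 MTT cytotoxicity/growth-inhibition assay in human cell lines including A2780, A2780/ADR, H460 and HUVEC.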

HUVEC = assay: Growth inhibition studies using HUVEC; type: cell-based, human
Protocol: as §1
(§3) (2) Competition for the colchicine binding site on tubulin. The figure quoted represents the % of ^3H-colchicine bound following co-incubation of test compound and ^3H-cochicine with isolated tubulin. Where ester pro-drugs were used the experiments were carried out in the presence and absence of porcine liver esterase. • (3) Cytotoxicity/growth inhibition assay. This was carried out by the MTT assay. • (4) Permeability (shape-change) assay in endothelial cells. This was carried out using a method based on that of Watts et al. (Anticancer Res., 17, 71–75, (1997)). This involved the diffusion of a fluorescently labelled dextran through a barrier of endothelial cells (HUVEC) grown to confluence on a porous membrane. The effect of agents to alter the shape of these cells results in an increase in the permeability of the cells to the dye. The figure represents the increase in permeability over control cultures when drug is added (30 minutes, 1 mM.). • (5) Experiments to study the anti-vascular effects of these agents were carried out as described previously by our group. (Zhao et al, European Journal of Nuclear Medicine, 26, 231–238 (1999)). The anti-vascular effects of the agents were monitored by either positron emission tomography (PET) or by histologogical examination following treatment of mice bearing T50:80 murine breast tumours, or H460 human lung tumours. • (6) Anti-tumour efficacy of agents was determined in xenografts of H460 human lung cancer. Animals (n=5) were trated either with 5 daily injections and tumour size measured with time following treatment. • (7) The pharmacokinetic profile of agents was determined in mice following injection with drug. Blood was taken at various times following treatment and analysed by HPLC with UV detection. The HPLC conditions were isocratic using a 5 micron C18 BDS column (150×4.6) ad eluting with 75% MeOH in water with a detection wavelength of 290 nm. […] (AND(P)H:quinone oxidoreductace, EC 1.6.99.2). DT-diaphorase is an enzyme over-expressed in a number of human tumours. […] This two-electron reducing enzyme can be used to selectively activate prodrugs within cancers which over-express the enzyme.

[4] = system: H460 human lung cell line; assay: Cytotoxicity/growth inhibition assay (MTT), H460; type: cell-based
Protocol: as §1, §3

DT-diaphorase = DT-diaphorase (Homo sapiens, UniProt P15559); assay: Activation of quinone prodrugs by DT-diaphorase; type: biochemical; settings: comparable to RH1
Sequence of DT-diaphorase (P15559 whole entry, species assumed, the tested form may be a part): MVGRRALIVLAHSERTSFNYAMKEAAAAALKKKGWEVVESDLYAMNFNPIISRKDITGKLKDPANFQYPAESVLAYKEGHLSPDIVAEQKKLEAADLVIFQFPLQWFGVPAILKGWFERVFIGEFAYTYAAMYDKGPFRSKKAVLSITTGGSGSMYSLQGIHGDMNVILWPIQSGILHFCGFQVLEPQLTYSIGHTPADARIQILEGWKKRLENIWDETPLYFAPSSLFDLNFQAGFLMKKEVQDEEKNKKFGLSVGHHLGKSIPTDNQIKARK
Protocol: (§4) (2) Competition for the colchicine binding site on tubulin. The figure quoted represents the % of ^3H-colchicine bound following co-incubation of test compound and ^3H-cochicine with isolated tubulin. Where ester pro-drugs were used the experiments were carried out in the presence and absence of porcine liver esterase. • (3) Cytotoxicity/growth inhibition assay. This was carried out by the MTT assay. • (4) Permeability (shape-change) assay in endothelial cells. This was carried out using a method based on that of Watts et al. (Anticancer Res., 17, 71–75, (1997)). This involved the diffusion of a fluorescently labelled dextran through a barrier of endothelial cells (HUVEC) grown to confluence on a porous membrane. […] The anti-vascular effects of the agents were monitored by either positron emission tomography (PET) or by histologogical examination following treatment of mice bearing T50:80 murine breast tumours, or H460 human lung tumours. • (6) Anti-tumour efficacy of agents was determined in xenografts of H460 human lung cancer. Animals (n=5) were trated either with 5 daily injections and tumour size measured with time following treatment. • (7) The pharmacokinetic profile of agents was determined in mice following injection with drug. Blood was taken at various times following treatment and analysed by HPLC with UV detection. […]

[5] = system: diaphorase null H596 cell line; assay: Cytotoxicity/growth inhibition assay (MTT), H596; type: cell-based; settings: for H596/H460: ratio of IC50, diaphorase null H596 over H460
Protocol: as §1
(2) Competition for the colchicine binding site on tubulin. The figure quoted represents the % of ^3H-colchicine bound following co-incubation of test compound and ^3H-cochicine with isolated tubulin. Where ester pro-drugs were used the experiments were carried out in the presence and absence of porcine liver esterase. • (3) Cytotoxicity/growth inhibition assay. This was carried out by the MTT assay. • (4) Permeability (shape-change) assay in endothelial cells. This was carried out using a method based on that of Watts et al. (Anticancer Res., 17, 71–75, (1997)). This involved the diffusion of a fluorescently labelled dextran through a barrier of endothelial cells (HUVEC) grown to confluence on a porous membrane. The effect of agents to alter the shape of these cells results in an increase in the permeability of the cells to the dye. The figure represents the increase in permeability over control cultures when drug is added (30 minutes, 1 mM.). • (5) Experiments to study the anti-vascular effects of these agents were carried out as described previously by our group. (Zhao et al, European Journal of Nuclear Medicine, 26, 231–238 (1999)). The anti-vascular effects of the agents were monitored by either positron emission tomography (PET) or by histologogical examination following treatment of mice bearing T50:80 murine breast tumours, or H460 human lung tumours. • (6) Anti-tumour efficacy of agents was determined in xenografts of H460 human lung cancer. Animals (n=5) were trated either with 5 daily injections and tumour size measured with time following treatment. • (7) The pharmacokinetic profile of agents was determined in mice following injection with drug. Blood was taken at various times following treatment and analysed by HPLC with UV detection. The HPLC conditions were isocratic using a 5 micron C18 BDS column (150×4.6) ad eluting with 75% MeOH in water with a detection wavelength of 290 nm. The retention time of 6.6 mins for 97–64H. • (8) Activation of quinone prodrugs by DT-diaphorase. (AND(P)H:quinone oxidoreductace, EC 1.6.99.2). DT-diaphorase is an enzyme over-expressed in a number of human tumours. We have recently shown this enzyme to be highly expressed in the endothelial cells of blood vessels. This two-electron reducing enzyme can be used to selectively activate prodrugs within cancers which over-express the enzyme. We have therefore synthesised quinone pro-drugs (97–96, 98–40, 98–23, 98–33, 98–24) which, upon reduction by the enzyme, produces an agent (a hydroquinone stilbene) which is cytotoxic.
A series of prodrugs capable of being activated by DT-diaphorase, an enzyme over-expressed in a wide range of human cancers and in endothelial cells of the vasculature were synthesised. The rationale for this is that these agents will be activated in situ by the tumours over-expressing the enzyme, thus giving rise to a high local concentration of active drug. This confers selectivity to this agent. These quinone prodrugs (97–96 and 98–23) were tested for their ability to act as substrates for DT-diaphorase. […] This agent may therefore have a role in the treatment of tumours that over-express DT-diaphorase. Similarly, these agents maybe selectively activated in the endothelial cells of the vasculature, thereby conferring a selective anti-vascular effect.

[6] = system: H460 human lung cancer xenografts; assay: Anti-tumour efficacy in xenografts of H460 human lung cancer; type: in vivo, mice; settings: H460 human lung cancer xenograft
Protocol: as §4

[7] = system: H460 human lung xenograft; assay: Tumour damage in H460 human lung xenograft grown subcutaneously; type: in vivo; settings: 0.75×MTD, i.p., twenty four hours following injection
Protocol: The effect of compounds 97–64H and 97–96 (quinone compound) was tested on H460 human lung xenograft grown subcutaneously by injecting equitoxic doses of the compounds (0.75×MTD).

[8] = system: cancer cell growth in vitro; assay: Inhibition of cancer cell growth in vitro (cell line not stated); type: cell-based; settings: read-out: IC50, ability to inhibit cancer cell growth in vitro
[9] = Homo sapiens, A2780, read-out: A2780 IC50
[10] = Homo sapiens, A2780, read-out: IC50 (nM) A2780

melting point: 132 to 134 °C
Structure (SMILES): COC(=O)CCOc1cc([N+](=O)[O-])c(CCc2cc(/C=C\c3cc(OC)c(OC)c(OC)c3)ccc2OC)cc1OC

Structure (SMILES): COc1ccc(/C=C(/C)c2cc(OC)c(OC)c(OC)c2)cc1O [Compound 19, Z-(3′-Hydroxy-4′-methoxyphenyl)-2-(3″,4″,5″-trimethoxyphenyl)propene]
IC50 (tubulin): 1.8 µM
IC50 [1]: 40 nM
melting point: 156 to 158 °C

IC50 (tubulin): 1.5 µM
melting point: 60 to 61 °C
Structure (SMILES): COc1ccc(/C=C\c2cc(C)c(C)c(C)c2)cc1O [Compound 28, (Z)-1-(3′,4′,5′-trimethylphenyl)-2-(3″-hydroxy-4″-methoxyphenyl)ethene]
IC50 [1]: 21 nM

Structure (SMILES): COc1ccc(C=Cc2cc(OC)c(OC)c(OC)c2)cc1OC(=O)c1ccncc1 [Compound 96-167]
IC50 ([2]; MTT): 0.8 nM
IC50 (tubulin): 9 µM
Colchicine % Inhibition [3]: 3.8%
IC50 (A2780; read-out: A2780 IC50): 0.37 nM
IC50 (HUVEC; Homo sapiens, HUVEC): 40 nM

Structure (SMILES): COc1ccc(C=Cc2cc(OC)c(OC)c(OC)c2)cc1OC(=O)c1ccncc1 [Compound 97-07]
IC50 ([2]; MTT): 2.3 nM
IC50 (tubulin): 10 µM
Colchicine % Inhibition [3]: 6.6% and 12.3%
IC50 (A2780; read-out: A2780 IC50): 1.47 nM
IC50 ([4]; Homo sapiens, NCI-H460): 2780 nM

IC50 (tubulin): > 100 µM
Colchicine % Inhibition [3]: 84.2%
Structure (SMILES): COc1ccc(/C=C\c2cc(OC)c(OC)c(OC)c2)cc1Oc1c(F)c(F)nc(F)c1F [Compound 97-13H]
IC50 ([2]; MTT): 32.6 nM
IC50 (A2780; read-out: A2780 IC50): 17.9 nM
IC50 [4]: 32 to 35 nM
IC50 (HUVEC): 45 nM

Structure (SMILES): COc1ccc(C=Cc2cc(OC)c(OC)c(OC)c2)cc1F [Compound 97-64L]
IC50 ([2]; MTT): 171 nM
IC50 (tubulin): > 100 µM
Colchicine % Inhibition [3]: 43%
IC50 (A2780; read-out: A2780 IC50): 113 nM

Structure (SMILES): COC1=CC(=O)C(/C=C\c2cc(OC)c(OC)c(OC)c2)=CC1=O [Compound 97-96, 2-Methoxy-5-[(Z)-2-(3′,4′,5′-trimethoxyphenyl)-vinyl]-[1,4]benzoquinone]
ability to act as substrate for DT-diaphorase (DT-diaphorase): good substrates for the enzyme
IC50 ([2]; Mus musculus, P388): 570 nM
IC50 ([2]; Mus musculus, P388, MTT): 570 nM
IC50 ([5]; Homo sapiens, NCI-H596): 620 nM
H596/H460 [5]: 16
IC50 (tubulin): < 1.25 µM
anti-tumour activity in vivo [6]: active
tumour damage [7]: extensive damage to the tumours
IC50 (A2780; [9]): 190 nM
IC50 (A2780; [10]): 190 nM
IC50 ([4]; Homo sapiens, NCI-H460): 38 nM
IC50 (HUVEC): 220 nM
IC50 (HUVEC; Homo sapiens, HUVEC): 230 nM

IC50 (tubulin): < 1.25 µM
Colchicine % Inhibition [3]: 1.4%
Structure (SMILES): COc1cc(C=Cc2ccc(C)c(O)c2)cc(OC)c1OC [Compound 98-21]
IC50 ([2]; Mus musculus, P388, MTT): 0.935 nM
IC50 (A2780; [9]): 0.66 nM
IC50 (HUVEC; Homo sapiens, HUVEC): 9.5 nM

Structure (SMILES): COc1cc(/C=C\C2=CC(=O)C(C)=CC2=O)cc(OC)c1OC [Compound 98-23]
ability to act as substrate for DT-diaphorase (DT-diaphorase): good substrates for the enzyme
IC50 [2]: 2180 nM
IC50 ([2]; MTT): 2180 nM
IC50 [5]: 2280 nM
H596/H460 [5]: 0.52
IC50 (A2780; read-out: A2780 IC50): 2150 nM
IC50 (A2780; read-out: IC50 (nM) A2780): 2150 nM
IC50 [4]: 4370 nM

Structure (SMILES): COC1=CC(=O)C(CCc2cc(OC)c(OC)c(OC)c2)=CC1=O [Compound 98-24]
IC50 ([2]; Mus musculus, P388): 17000 nM
IC50 ([5]; Homo sapiens, NCI-H596): 1950 nM
H596/H460 [5]: 0.63
IC50 (A2780; [10]): 1630 nM
IC50 ([4]; Homo sapiens, NCI-H460): 3080 nM

Structure (SMILES): COc1ccc(C=Cc2cc(OC)c(OC)c(OC)c2)cc1OCc1ccccc1[N+](=O)[O-] [Compound 98-29]
IC50 ([2]; Mus musculus, P388, MTT): 450 nM
IC50 (tubulin): > 100 µM
Colchicine % Inhibition [3]: 53%
IC50 (A2780; [9]): 380 nM
IC50 (HUVEC; Homo sapiens, HUVEC): 430 nM

Structure (SMILES): COc1cc(/C=C/C2=CC(=O)C(C)=CC2=O)cc(OC)c1OC [Compound 98-33]
IC50 [2]: < 780 nM
IC50 [5]: 1490 nM
H596/H460 [5]: 0.36
IC50 (A2780; read-out: IC50 (nM) A2780): 950 nM
IC50 [4]: 4110 nM

IC50 (tubulin): 6.25 µM
Colchicine % Inhibition [3]: 5%
Structure (SMILES): COc1cc(/C=C\c2ccc(C)c(F)c2)cc(OC)c1OC [Compound 98-35H]
IC50 ([2]; MTT): 3.28 nM
IC50 (A2780; read-out: A2780 IC50): 1.44 nM
IC50 (HUVEC): 16 nM

Structure (SMILES): c1ccc2c(c1)ccc1ccccc12 [phenanthrene]
IC50 [8]: 700 nM
